Source: PubChem BioAssay (NCI)
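The compound was tested at five concentrations on cells cultured in 96-well plates, with a 48-hour exposure period. GI50 marks 50% less growth. Definition used: TGI = concentration required for complete inhibition of growth.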

What was measured:
Test in all cases: growth of human tumour cells (NCI), 48 h
786-0 renal = tested on: 786-0 renal
A498 renal = tested on: A498 renal
A549 NSCLC = tested on: A549 NSCLC
ACHN renal = tested on: ACHN renal
BT-549 breast = tested on: BT-549 breast
CAKI-1 renal = tested on: CAKI-1 renal
COLO 205 colon = tested on: COLO 205 colon
DU-145 prostate = tested on: DU-145 prostate
EKVX NSCLC = tested on: EKVX NSCLC
HCC-2998 colon = tested on: HCC-2998 colon
HCT-116 colon = tested on: HCT-116 colon
HCT-15 colon = tested on: HCT-15 colon
HL-60(TB) leukemia = tested on: HL-60(TB) leukemia
HOP-62 NSCLC = tested on: HOP-62 NSCLC
HOP-92 NSCLC = tested on: HOP-92 NSCLC
HS 578T breast = tested on: HS 578T breast
HT29 colon = tested on: HT29 colon
IGROV1 ovarian = tested on: IGROV1 ovarian
K-562 leukemia = tested on: K-562 leukemia
KM12 colon = tested on: KM12 colon
LOX IMVI melanoma = tested on: LOX IMVI melanoma
M14 melanoma = tested on: M14 melanoma
MALME-3M melanoma = tested on: MALME-3M melanoma
MCF7 breast = tested on: MCF7 breast
MDA-MB-231 breast = tested on: MDA-MB-231 breast
MDA-MB-435 = tested on: MDA-MB-435
MOLT-4 leukemia = tested on: MOLT-4 leukemia
NCI-H226 lung = tested on: NCI-H226 lung
NCI-H23 lung = tested on: NCI-H23 lung
NCI-H460 lung = tested on: NCI-H460 lung
NCI-H522 lung = tested on: NCI-H522 lung
NCI/ADR-RES ovarian = tested on: NCI/ADR-RES ovarian
OVCAR-3 ovarian = tested on: OVCAR-3 ovarian
OVCAR-4 ovarian = tested on: OVCAR-4 ovarian
OVCAR-5 ovarian = tested on: OVCAR-5 ovarian
OVCAR-8 ovarian = tested on: OVCAR-8 ovarian
PC-3 prostate = tested on: PC-3 prostate
RPMI-8226 leukemia = tested on: RPMI-8226 leukemia
RXF 393 renal = tested on: RXF 393 renal
SF-268 CNS = tested on: SF-268 CNS
SF-295 CNS = tested on: SF-295 CNS
SF-539 CNS = tested on: SF-539 CNS
SK-MEL-2 melanoma = tested on: SK-MEL-2 melanoma
SK-MEL-28 melanoma = tested on: SK-MEL-28 melanoma
SK-MEL-5 melanoma = tested on: SK-MEL-5 melanoma
SK-OV-3 ovarian = tested on: SK-OV-3 ovarian
SN12C renal = tested on: SN12C renal
SNB-19 CNS = tested on: SNB-19 CNS
SNB-75 CNS = tested on: SNB-75 CNS
SR leukemia = tested on: SR leukemia
SW-620 colon = tested on: SW-620 colon
T-47D breast = tested on: T-47D breast
TK-10 renal = tested on: TK-10 renal
U251 CNS = tested on: U251 CNS
UACC-257 melanoma = tested on: UACC-257 melanoma
UACC-62 melanoma = tested on: UACC-62 melanoma
UO-31 renal = tested on: UO-31 renal

CN1N=Nc2c(C(F)(F)F)nn(-c3ccccc3)c2N(C)C1=O
GI50 (786-0 renal): > 100 µM | TGI (786-0 renal): > 100 µM | GI50 (A498 renal): > 100 µM | TGI (A498 renal): > 100 µM | GI50 (A549 NSCLC): > 100 µM | TGI (A549 NSCLC): > 100 µM | GI50 (ACHN renal): > 100 µM | TGI (ACHN renal): > 100 µM | GI50 (BT-549 breast): > 100 µM | TGI (BT-549 breast): > 100 µM | GI50 (CAKI-1 renal): > 100 µM | TGI (CAKI-1 renal): > 100 µM | GI50 (COLO 205 colon): > 47.9 µM | TGI (COLO 205 colon): > 70.4 µM | GI50 (DU-145 prostate): > 100 µM | TGI (DU-145 prostate): > 100 µM | GI50 (EKVX NSCLC): > 100 µM | TGI (EKVX NSCLC): > 100 µM | GI50 (HCC-2998 colon): > 100 µM | TGI (HCC-2998 colon): > 100 µM | GI50 (HCT-116 colon): > 100 µM | TGI (HCT-116 colon): > 100 µM | GI50 (HCT-15 colon): > 100 µM | TGI (HCT-15 colon): > 100 µM | GI50 (HL-60(TB) leukemia): > 32 µM | TGI (HL-60(TB) leukemia): > 52.7 µM | GI50 (HOP-62 NSCLC): > 100 µM | TGI (HOP-62 NSCLC): > 100 µM | GI50 (HOP-92 NSCLC): > 100 µM | TGI (HOP-92 NSCLC): > 100 µM | GI50 (HS 578T breast): > 100 µM | TGI (HS 578T breast): > 100 µM | GI50 (HT29 colon): > 100 µM | TGI (HT29 colon): > 100 µM | GI50 (IGROV1 ovarian): > 100 µM | TGI (IGROV1 ovarian): > 100 µM | GI50 (K-562 leukemia): > 56.4 µM | TGI (K-562 leukemia): > 100 µM | GI50 (KM12 colon): > 100 µM | TGI (KM12 colon): > 100 µM | GI50 (LOX IMVI melanoma): > 100 µM | TGI (LOX IMVI melanoma): > 100 µM | GI50 (M14 melanoma): > 100 µM | TGI (M14 melanoma): > 100 µM | GI50 (MALME-3M melanoma): > 100 µM | TGI (MALME-3M melanoma): > 100 µM | GI50 (MCF7 breast): > 100 µM | TGI (MCF7 breast): > 100 µM | GI50 (MDA-MB-231 breast): > 100 µM | TGI (MDA-MB-231 breast): > 100 µM | GI50 (MDA-MB-435): > 100 µM | TGI (MDA-MB-435): > 100 µM | TGI (MOLT-4 leukemia): > 45.3 µM | GI50 (NCI-H226 lung): > 100 µM | TGI (NCI-H226 lung): > 100 µM | GI50 (NCI-H23 lung): > 100 µM | TGI (NCI-H23 lung): > 100 µM | GI50 (NCI-H460 lung): > 100 µM | TGI (NCI-H460 lung): > 100 µM | GI50 (NCI-H522 lung): > 100 µM | TGI (NCI-H522 lung): > 100 µM | GI50 (NCI/ADR-RES ovarian): > 100 µM | TGI (NCI/ADR-RES ovarian): > 100 µM | GI50 (OVCAR-3 ovarian): > 100 µM | TGI (OVCAR-3 ovarian): > 100 µM | GI50 (OVCAR-4 ovarian): > 100 µM | TGI (OVCAR-4 ovarian): > 100 µM | GI50 (OVCAR-5 ovarian): > 100 µM | TGI (OVCAR-5 ovarian): > 100 µM | TGI (OVCAR-8 ovarian): > 100 µM | GI50 (PC-3 prostate): > 100 µM | TGI (PC-3 prostate): > 100 µM | GI50 (RPMI-8226 leukemia): > 56 µM | TGI (RPMI-8226 leukemia): > 100 µM | TGI (RXF 393 renal): > 100 µM | GI50 (SF-268 CNS): > 100 µM | TGI (SF-268 CNS): > 100 µM | GI50 (SF-295 CNS): > 100 µM | TGI (SF-295 CNS): > 100 µM | GI50 (SF-539 CNS): > 100 µM | TGI (SF-539 CNS): > 100 µM | GI50 (SK-MEL-2 melanoma): > 100 µM | TGI (SK-MEL-2 melanoma): > 100 µM | GI50 (SK-MEL-28 melanoma): > 100 µM | TGI (SK-MEL-28 melanoma): > 100 µM | GI50 (SK-MEL-5 melanoma): > 100 µM | TGI (SK-MEL-5 melanoma): > 100 µM | GI50 (SK-OV-3 ovarian): > 100 µM | TGI (SK-OV-3 ovarian): > 100 µM | GI50 (SN12C renal): > 100 µM | TGI (SN12C renal): > 100 µM | GI50 (SNB-19 CNS): > 100 µM | TGI (SNB-19 CNS): > 100 µM | GI50 (SNB-75 CNS): > 100 µM | TGI (SNB-75 CNS): > 100 µM | GI50 (SR leukemia): > 100 µM | TGI (SR leukemia): > 100 µM | GI50 (SW-620 colon): > 100 µM | TGI (SW-620 colon): > 100 µM | GI50 (T-47D breast): > 100 µM | TGI (T-47D breast): > 100 µM | GI50 (TK-10 renal): > 100 µM | TGI (TK-10 renal): > 100 µM | GI50 (U251 CNS): > 100 µM | TGI (U251 CNS): > 100 µM | GI50 (UACC-257 melanoma): > 100 µM | TGI (UACC-257 melanoma): > 100 µM | GI50 (UACC-62 melanoma): > 100 µM | TGI (UACC-62 melanoma): > 100 µM | GI50 (UO-31 renal): > 100 µM | TGI (UO-31 renal): > 100 µM
